Series [1] addresses T1, full-length beta-catenin (Axin site) (Homo sapiens, UniProt P35222).
T1 construct: 15 nM full-length beta-catenin, 20 nM FITC labeled peptide in buffer
T1 sequence (P35222 1-781): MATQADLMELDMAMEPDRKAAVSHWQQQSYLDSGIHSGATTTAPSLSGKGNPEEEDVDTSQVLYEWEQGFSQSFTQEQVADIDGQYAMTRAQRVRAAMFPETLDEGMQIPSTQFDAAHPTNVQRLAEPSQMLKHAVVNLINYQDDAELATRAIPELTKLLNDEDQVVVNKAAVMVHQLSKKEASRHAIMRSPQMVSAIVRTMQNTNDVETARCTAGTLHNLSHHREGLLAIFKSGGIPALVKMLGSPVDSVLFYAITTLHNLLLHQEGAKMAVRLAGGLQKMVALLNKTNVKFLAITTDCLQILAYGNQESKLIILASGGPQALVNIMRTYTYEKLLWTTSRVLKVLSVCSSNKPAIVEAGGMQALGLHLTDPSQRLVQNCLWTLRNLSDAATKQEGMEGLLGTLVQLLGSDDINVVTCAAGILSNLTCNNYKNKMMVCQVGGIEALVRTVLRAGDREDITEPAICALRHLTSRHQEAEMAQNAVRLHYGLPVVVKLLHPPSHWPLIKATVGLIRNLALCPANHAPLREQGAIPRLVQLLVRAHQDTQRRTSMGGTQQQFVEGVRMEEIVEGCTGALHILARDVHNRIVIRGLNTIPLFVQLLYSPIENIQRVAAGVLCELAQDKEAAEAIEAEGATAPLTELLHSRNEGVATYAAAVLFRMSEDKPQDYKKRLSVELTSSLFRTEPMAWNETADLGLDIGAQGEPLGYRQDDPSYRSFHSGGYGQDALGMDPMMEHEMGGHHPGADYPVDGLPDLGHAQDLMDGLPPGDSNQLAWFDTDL
Briefly: Competition fluorescence polarization assay (Axin site probe). It is filed as binding. The conditions noted are these: competition fluorescence polarization, Table 2; read-out: in vitro FP EC50. An outline of the steps: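 Competition FP: 15 nM full-length β-catenin pre-incubated 5 min with 20 nM FITC-labelled stapled Axin-site peptide, then titrated peptide added (3-fold series from 5 μM) for 15 min in the dark. Buffer 50 mM Tris pH 8.0, 250 mM NaCl, 2% glycerol, 0.5 mM EDTA; duplicate reads.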

Series [2] in a line: Solubility in DPBS (A280 of supernatant). It is filed as physicochemical. The conditions noted are these: DPBS. The procedure: Suitable assays for assessing solubility are widely known in the art and can be utilized in accordance with the present disclosure. In some embodiments, in an exemplary protocol, dried peptide was reconstituted in DPBS (DPBS, 1×, cell culture grade, Sigma D8537) in triplicate, vortexed, sonicated and then centrifuged. Absorbance of the supernatant was measured at A280 (Nanodrop 2000) and the concentration was determined using the extinction coefficient for tryptophan. Exemplary solubility data are presented in, e.g., Table 2.

The mark [3] stands for this setting: Table 3 Part B, amino-stapled product, read-out: Solubility in DPBS.

In brackets after ≈: the same amount, converted by molar mass. Where two headings read alike, the source gives them in different places. Numbered stars: 1 amine (or outer) side, 2 acyl side, 3 side chain; on linkers, the order of the positions; unused ones are H or OH. Bridge positions count the residues as written; N and C are the ends. Square brackets hold non-standard residues; d marks the D form. Peptide text beside a SMILES is read from it. X8 = CN(CC=[*:3])CCC[C@](C)(N[*:1])C(=O)[*:2]; X6 = CN(CC=[*:3])CC[C@](C)(N[*:1])C(=O)[*:2]; X4 = O=C([C@]1(N[*:1])CCN(CC=[*:3])C1)[*:2]; X5 = C[C@](CCCCCC=[*:3])(N[*:1])C(=O)[*:2]; X7 = C[C@](CCCCC=[*:3])(N[*:1])C(=O)[*:2]; X9 = C[C@](CCC=[*:3])(N[*:1])C(=O)[*:2]; R8 = C=CCCCCCC[C@@](C)(N)C(=O)O; R5 = C=CCCC[C@@](C)(N)C(=O)O

Consider `CC[C@H](C)[C@@H]1NC(=O)[C@H](Cc2c[nH]cn2)NC(=O)[C@H](C)NC(=O)[C@H](CC(=O)O)NC(=O)[C@H](CC(C)C)NC(=O)[C@H]([C@@H](C)CC)NC(=O)[C@](C)(NC(=O)[C@H](C)NC(C)=O)CCCC=CCOC(=O)N(C)CCC[C@@](C)(C(=O)N[C@@H](CCCNC(=N)N)C(=O)N[C@H](C(=O)N[C@@H](Cc2c[nH]c3ccccc23)C(N)=O)C(C)C)NC1=O` (single isomer, unassigned) [FP0510c Isomer 1, Ac-A-R5-I-L-D-A-H-I-MH-R-V-W-NH2], for which the EC50 (usually the concentration at which the effect is half-maximal) in series [1] was less than 100 nM. Also, the “Solubility in DPBS” value in series [2] (Table 3 Part A) is given as 65 (Isomer 1) μM.
The matching figures for `CC[C@H](C)[C@@H]1NC(=O)[C@H](Cc2c[nH]cn2)NC(=O)[C@H](C)NC(=O)[C@H](CC(=O)O)NC(=O)[C@H](CC(C)C)NC(=O)[C@H]([C@@H](C)CC)NC(=O)[C@](C)(NC(=O)[C@H](C)NC(C)=O)CCCC=CCOC(=O)N(C)CCC[C@@](C)(C(=O)N[C@@H](CCCNC(=N)N)C(=O)N[C@H](C(=O)N[C@@H](Cc2c[nH]c3ccccc23)C(N)=O)C(C)C)NC1=O` (single isomer, unassigned) [FP0510c Isomer 2, Ac-A-R5-I-L-D-A-H-I-MH-R-V-W-NH2]: less than 100 nM and 31 (Isomer 2) μM.
The matching figures for `CC[C@H](C)[C@@H]1NC(=O)[C@H](Cc2c[nH]cn2)NC(=O)[C@H](C)NC(=O)[C@H](CC(=O)O)NC(=O)[C@H](CC(C)C)NC(=O)[C@H]([C@@H](C)CC)NC(=O)[C@](C)(NC(=O)[C@H](C)NC(C)=O)CCCCC=CCOC(=O)N(C)CCC[C@@](C)(C(=O)N[C@@H](CCCNC(=N)N)C(=O)N[C@H](C(=O)N[C@@H](Cc2c[nH]c3ccccc23)C(N)=O)C(C)C)NC1=O` (single isomer, unassigned) [FP0511c Isomer 1, Ac-A-R6-I-L-D-A-H-I-MH-R-V-W-NH2]: less than 100 nM and 49 (Isomer 1) μM.
In the same order, the values of `CC[C@H](C)[C@@H]1NC(=O)[C@H](Cc2c[nH]cn2)NC(=O)[C@H](C)NC(=O)[C@H](CC(=O)O)NC(=O)[C@H](CC(C)C)NC(=O)[C@H]([C@@H](C)CC)NC(=O)[C@](C)(NC(=O)[C@H](C)NC(C)=O)CCCCC=CCOC(=O)N(C)CCC[C@@](C)(C(=O)N[C@@H](CCCNC(=N)N)C(=O)N[C@H](C(=O)N[C@@H](Cc2c[nH]c3ccccc23)C(N)=O)C(C)C)NC1=O` (single isomer, unassigned) [FP0511c Isomer 2, Ac-A-R6-I-L-D-A-H-I-MH-R-V-W-NH2] are less than 100 nM and 24 (Isomer 2) μM.
With `CC[C@H](C)[C@@H]1NC(=O)[C@H](Cc2c[nH]cn2)NC(=O)[C@H](C)NC(=O)[C@H](CC(=O)O)NC(=O)[C@H](CC(C)C)NC(=O)[C@H]([C@@H](C)CC)NC(=O)[C@](C)(NC(=O)[C@H](C)NC(C)=O)CCCCCCC=CCN2CC[C@@](C(=O)N[C@@H](CCCNC(=N)N)C(=O)N[C@H](C(=O)N[C@@H](Cc3c[nH]c4ccccc34)C(N)=O)C(C)C)(C2)NC1=O` [FP0217a, Ac-A-R8-I-L-D-A-H-I-MB-R-V-W-NH2] (Ac-A[R8]ILDAHI[X4]RVW-NH2; staple 2-9), the EC50 in series [1] is greater than 5000 nM. Further, the solubility (usually the dissolved amount per volume that the medium holds) in series [2] (Table 2, read-out: Solubility) turned out to be 111 µM (≈ 171 µg/mL); in series [2] (setting [3]) it was 111 µM (≈ 171 µg/mL).
As for `CC[C@H](C)[C@@H]1NC(=O)[C@H](Cc2c[nH]cn2)NC(=O)[C@H](C)NC(=O)[C@H](CC(=O)O)NC(=O)[C@H](CC(C)C)NC(=O)[C@H]([C@@H](C)CC)NC(=O)[C@](C)(NC(=O)[C@H](C)NC(=O)CCN)CCCCCCC=CCOC(=O)N2CC[C@@](C(=O)N[C@@H](CCCNC(=N)N)C(=O)N[C@H](C(=O)N[C@@H](Cc3c[nH]c4ccccc34)C(N)=O)C(C)C)(C2)NC1=O` [FP0217c_bAfree, bA-A-R8-I-L-D-A-H-I-MB-R-V-W-NH2], in series [1], the EC50 was less than 100 nM. Moreover, the solubility in series [2] (Table 2, read-out: Solubility) was found to be 155 µM (≈ 250 µg/mL).
In the same order, the values of `CC[C@H](C)[C@@H]1NC(=O)[C@H](Cc2c[nH]cn2)NC(=O)[C@H](C)NC(=O)[C@H](CC(=O)O)NC(=O)[C@H](CC(C)C)NC(=O)[C@H]([C@@H](C)CC)NC(=O)[C@](C)(NC(=O)[C@H](C)NC(C)=O)CCCCCCCCCOC(=O)N2CC[C@@](C(=O)N[C@@H](CCCNC(=N)N)C(=O)N[C@H](C(=O)N[C@@H](Cc3c[nH]c4ccccc34)C(N)=O)C(C)C)(C2)NC1=O` [FP0217rc, Ac-A-R8-I-L-D-A-H-I-MB-R-V-W-NH2] are less than 100 nM and 26 µM (≈ 41.2 µg/mL).
In the same order, the values of `CC[C@H](C)[C@@H]1NC(=O)[C@H](Cc2c[nH]cn2)NC(=O)[C@H](C)NC(=O)[C@H](CC(=O)O)NC(=O)[C@H](CC(C)C)NC(=O)[C@H]([C@@H](C)CC)NC(=O)[C@](C)(NC(C)=O)CCCCCCC=CCOC(=O)N2CC[C@@](C(=O)N[C@@H](CCCNC(=N)N)C(=O)N[C@H](C(=O)N[C@@H](Cc3c[nH]c4ccccc34)C(N)=O)C(C)C)(C2)NC1=O` [FP0220c, Ac-R8-I-L-D-A-H-I-MB-R-V-W-NH2] are less than 100 nM and 14 µM (≈ 21.2 µg/mL).
In the case of `CC[C@H](C)[C@@H]1NC(=O)[C@H](Cc2c[nH]cn2)NC(=O)[C@H](C)NC(=O)[C@H](CC(=O)O)NC(=O)[C@H](CC(C)C)NC(=O)[C@H]([C@@H](C)CC)NC(=O)[C@](C)(NC(=O)[C@H](C)NC(C)=O)CCCCCC=CCN(C)CC[C@@](C)(C(=O)N[C@@H](CCCNC(=N)N)C(=O)N[C@H](C(=O)N[C@@H](Cc2c[nH]c3ccccc23)C(N)=O)C(C)C)NC1=O` [FP0503a, Ac-A-R7-I-L-D-A-H-I-MF-R-V-W-NH2] (Ac-A[X5]ILDAHI[X6]RVW-NH2; staple 2-9), the EC50 in series [1] fell in the range of 100 to 500 nM. The solubility in series [2] (Table 2, read-out: Solubility) stood at 236 µM (≈ 364 µg/mL); in series [2] (setting [3]) it was 236 µM (≈ 364 µg/mL).
In the case of `CC[C@H](C)[C@@H]1NC(=O)[C@H](Cc2c[nH]cn2)NC(=O)[C@H](C)NC(=O)[C@H](CC(=O)O)NC(=O)[C@H](CC(C)C)NC(=O)[C@H]([C@@H](C)CC)NC(=O)[C@](C)(NC(=O)[C@H](C)NC(C)=O)CCCCCC=CCOC(=O)N(C)CC[C@@](C)(C(=O)N[C@@H](CCCNC(=N)N)C(=O)N[C@H](C(=O)N[C@@H](Cc2c[nH]c3ccccc23)C(N)=O)C(C)C)NC1=O` [FP0503c, Ac-A-R7-I-L-D-A-H-I-MF-R-V-W-NH2], in series [1], the EC50 lay in the range of 100 to 500 nM. In addition, the solubility in series [2] (Table 2, read-out: Solubility) amounted to 35 µM (≈ 55.5 µg/mL); in series [2] (Table 3 Part A, read-out: Solubility in DPBS), 35 µM (≈ 55.5 µg/mL).
For `CC[C@H](C)[C@@H]1NC(=O)[C@H](Cc2c[nH]cn2)NC(=O)[C@H](C)NC(=O)[C@H](CC(=O)O)NC(=O)[C@H](CC(C)C)NC(=O)[C@H]([C@@H](C)CC)NC(=O)[C@](C)(NC(=O)[C@H](C)NC(C)=O)CCC=CCN(C)CCC[C@@](C)(C(=O)N[C@@H](CCCNC(=N)N)C(=O)N[C@H](C(=O)N[C@@H](Cc2c[nH]c3ccccc23)C(N)=O)C(C)C)NC1=O` [FP0509a, Ac-A-R4-I-L-D-A-H-I-MH-R-V-W-NH2] (Ac-A[X9]ILDAHI[X8]RVW-NH2; staple 2-9), the EC50 in series [1] was in the range of 500 to 5000 nM. Besides, the solubility came out at 192 µM (≈ 291 µg/mL) in series [2] (Table 2, read-out: Solubility) and 192 µM (≈ 291 µg/mL) in series [2] (setting [3]).
For the molecule `CC[C@H](C)[C@@H]1NC(=O)[C@H](Cc2c[nH]cn2)NC(=O)[C@H](C)NC(=O)[C@H](CC(=O)O)NC(=O)[C@H](CC(C)C)NC(=O)[C@H]([C@@H](C)CC)NC(=O)[C@](C)(NC(=O)[C@H](C)NC(C)=O)CCCC=CCN(C)CCC[C@@](C)(C(=O)N[C@@H](CCCNC(=N)N)C(=O)N[C@H](C(=O)N[C@@H](Cc2c[nH]c3ccccc23)C(N)=O)C(C)C)NC1=O` [FP0510a, Ac-A-R5-I-L-D-A-H-I-MH-R-V-W-NH2] (Ac-A[R5]ILDAHI[X8]RVW-NH2; staple 2-9), the EC50 in series [1] is 500 to 5000 nM. Further, the solubility in series [2] (Table 2, read-out: Solubility) was 165 µM (≈ 252 µg/mL); in series [2] (setting [3]) it was 165 µM (≈ 252 µg/mL).
As to `CC[C@H](C)[C@@H]1NC(=O)[C@H](Cc2c[nH]cn2)NC(=O)[C@H](C)NC(=O)[C@H](CC(=O)O)NC(=O)[C@H](CC(C)C)NC(=O)[C@H]([C@@H](C)CC)NC(=O)[C@](C)(NC(=O)[C@H](C)NC(C)=O)CCCCC=CCN(C)CCC[C@@](C)(C(=O)N[C@@H](CCCNC(=N)N)C(=O)N[C@H](C(=O)N[C@@H](Cc2c[nH]c3ccccc23)C(N)=O)C(C)C)NC1=O` [FP0511a, Ac-A-R6-I-L-D-A-H-I-MH-R-V-W-NH2] (Ac-A[X7]ILDAHI[X8]RVW-NH2; staple 2-9), the EC50 in series [1] was less than 100 nM. The solubility stood at 170 µM (≈ 262 µg/mL) in series [2] (Table 2, read-out: Solubility) and 170 µM (≈ 262 µg/mL) in series [2] (setting [3]).
